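96-well plates; 48 h exposure; 5 concentrations. Endpoints by linear interpolation between flanking doses. Not reached: highest tested concentration assigned. The concentration for 50% growth inhibition is given as GI50. TGI marks complete inhibition of growth.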
Columns and labels:
Test in all cases: growth of human tumour cells (NCI), 48 h
[1] = system: TK-10 renal
[2] = system: IGROV1 ovarian
[3] = system: M14 melanoma
[4] = system: HS 578T breast
[5] = system: HT29 colon
[6] = system: MDA-MB-435
[7] = system: HCC-2998 colon
[8] = system: U251 CNS
[9] = system: MOLT-4 leukemia
[10] = system: NCI-H226 lung

| SMILES | GI50 [1] | TGI [1] | GI50 [2] | TGI [2] | GI50 [3] | TGI [3] | GI50 [4] | TGI [4] | GI50 [5] | TGI [5] | GI50 [6] | TGI [6] | GI50 [7] | TGI [7] | GI50 [8] | TGI [8] | GI50 [9] | TGI [9] | GI50 [10] | TGI [10] |
| --- | --- | --- | --- | --- | --- | --- | --- | --- | --- | --- | --- | --- | --- | --- | --- | --- | --- | --- | --- | --- |
| C[C@H]1[C@H](C)CC[C@]2(CO)CC[C@]3(C)C(=CC[C@@H]4[C@@]5(C)CCCNC(C)(C)[C@@H]5CC[C@]43C)[C@H]12 | 1.84 µM | 3.32 µM | 1.85 µM | 3.72 µM | 1.61 µM | 3.12 µM | 2.05 µM | 4.86 µM | 0.628 µM | 1.97 µM | 1.59 µM | 3.21 µM | 1.75 µM | 3.46 µM | 1.67 µM | 3.15 µM | 1.37 µM | 3.15 µM | – | – |
| COc1cnc2c(c1)C(=O)c1c-2n(CCCn2ccnc2)c(=O)c2cc(F)ccc12 | – | – | – | – | < 0.01 µM | 0.635 µM | 0.504 µM | > 100 µM | 0.013 µM | 0.226 µM | 0.121 µM | 0.832 µM | 0.361 µM | 79.5 µM | < 0.01 µM | 0.179 µM | < 0.01 µM | 0.131 µM | 0.0251 µM | 0.213 µM |
| Cn1cc(C(=O)NCCC(=N)N)cc1NC(=O)C1=[N+](C)C=C(NC(=O)c2cccc(C(=O)NC3=CC(C(=O)Nc4cc(C(=O)NCCC(=N)N)cn4C)=[N+](C)C3)c2)C1 | – | > 100 µM | – | > 100 µM | – | > 100 µM | – | – | – | > 100 µM | – | – | – | > 100 µM | – | > 100 µM | – | > 100 µM | – | > 100 µM |
| CCOC(=O)N1CCN(C=S)CC1 | – | > 100 µM | – | > 100 µM | – | > 100 µM | – | – | – | > 100 µM | – | – | – | > 100 µM | – | > 100 µM | – | > 100 µM | – | – |
| CCCCNc1nc(C#N)c(N)s1 | – | > 100 µM | – | > 100 µM | – | > 100 µM | – | – | – | > 100 µM | – | – | – | > 100 µM | – | > 100 µM | – | > 100 µM | – | > 100 µM |
| COc1cc(/C=C2/C(=O)N(C(=O)OCC(C)C)C(Cc3cc(OC)c(OC)c(C)c3OC)C(=O)N2Cc2ccccc2)c(OC)c(C)c1OC (stereo not drawn) | – | > 100 µM | – | > 100 µM | – | > 100 µM | – | – | – | > 100 µM | – | – | – | > 100 µM | – | > 100 µM | – | > 100 µM | – | 9.7 µM |
| CCN(CC)c1c(C(=O)/C=C/c2ccc(OC)cc2)c(-c2ccccc2)nn(C)c1=O | – | 99.9 µM | – | 68.8 µM | – | – | – | – | – | 41.3 µM | – | – | – | – | – | 32.7 µM | – | 19.8 µM | – | 47.9 µM |
| COC1CC(OS(=O)(=O)c2ccc([N+](=O)[O-])cc2)C(OC(=O)c2ccccc2)C(C)O1 (stereo not drawn) | – | > 100 µM | – | > 100 µM | – | > 100 µM | – | – | – | > 100 µM | – | – | – | > 100 µM | – | > 100 µM | – | > 100 µM | – | – |
| O=C(O)CNC(=O)c1ccc(-c2ccccc2)cc1 | – | > 100 µM | – | > 100 µM | – | > 100 µM | – | > 100 µM | – | – | – | > 100 µM | – | > 100 µM | – | > 100 µM | – | > 100 µM | – | > 100 µM |
| COc1ccc(-c2cc(=O)[nH]c3c(OC)c4ccccc4c(OC)c23)cc1 | > 42.4 µM | > 100 µM | 0.47 µM | > 91.5 µM | 0.388 µM | – | 0.345 µM | – | 0.342 µM | – | – | – | 1.28 µM | > 23.1 µM | 0.419 µM | > 100 µM | 0.914 µM | > 100 µM | > 20 µM | > 100 µM |
| CN(CCCn1c2c(c3ccccc3c1=O)C(=O)c1ccccc1-2)CCCn1c2c(c3ccccc3c1=O)C(=O)c1ccccc1-2 | – | – | – | – | 2.31 µM | > 22.6 µM | 2.67 µM | > 100 µM | – | – | 1.56 µM | 17.8 µM | 0.385 µM | 9.46 µM | – | – | – | 1.06 µM | 0.99 µM | > 36.9 µM |

From PubChem BioAssay (NCI)
